Experimental data published in the SangsterLogP compilation.

assay: not given; conditions: not given

SMILES	logP
Clc1ccc2ccccc2c1Cl	4.42
Clc1ccc2cc(Cl)c(Cl)cc2c1	5.12
Clc1c(Cl)c(Cl)c2c(Cl)c(Cl)c(Cl)c(Cl)c2c1Cl	6.42

Other lines, results leading:

logP	SMILES
5.81	Clc1cc2c(Cl)ccc(Cl)c2cc1Cl
5.77	Clc1cc2c(Cl)cccc2c(Cl)c1Cl

assay: not given; conditions: not given; remark: another data set of the same source

logP	SMILES
2.69	O=c1oc2cc(O)ccc2c2oc3cc(O)ccc3c12
2.62	CC1(C)C=Cc2cc3c(cc2O1)OC1c2ccc(O)cc2OCC31O (centres undefined)
3.21	COc1ccc([C@@H]2COc3cc(O)ccc3C2)c(OC)c1
2.61	Oc1ccc2c(c1)OC[C@H]1c3cc4c(cc3O[C@@H]21)OCO4
3.18	COc1ccc2c(c1)OCc1c-2oc2cc3c(cc12)C=CC(C)(C)O3

assay: not given; conditions: not given; remark: another data set of the same source

SMILES	logP
COC(=O)CCC12C=CC(CCC(=O)OC)(OO1)c1ccccc12	2.08
COC(=O)CCC1=CC2(CCC(=O)OC)OOC1(C)c1ccccc12 (centres undefined)	2.06
CC12C=CC(CCC(=O)O)(OO1)c1ccccc12 (centres undefined)	1.19
CC12C=CC(CCS(N)(=O)=O)(OO1)c1ccccc12 (centres undefined)	1.66
COC(=O)CCC12C=CC(C)(OO1)c1ccccc12 (centres undefined)	2.13

assay: not given; conditions: not given; remark: another data set of the same source

SMILES	logP
N#Cc1c(Cl)c(Cl)c(Cl)c(C#N)c1Cl	3.8
Cc1ccccc1C(=O)Nc1cccc(OC(C)C)c1	3.5
CNC(=O)Oc1ccccc1OC(C)C	1.99
CNC(=O)Oc1ccc(C)c(C)c1	2.25
CNC(=O)Oc1cc(C)cc(C)c1	2.38

assay: method code SF-AS, from PMID: 8197227; conditions: pH 7.4

logD	SMILES
0.14	NC(=S)NNCc1ccc2c(c1)OCO2
1.8	c1csc(NNCc2ccc3c(c2)OCO3)n1
2.14	O=C(NNc1nc(-c2ccccc2)cs1)c1ccc2c(c1)OCO2
1.4	NC(=S)N/N=C\c1ccc2c(c1)OCO2
1.5	Cc1csc(NN=Cc2ccc3c(c2)OCO3)n1

assay: not given; conditions: not given; remark: another data set of the same source

logP	SMILES
4.03	CN(C)c1ccc(-c2cn3cc(I)ccc3n2)cc1
3.06	Ic1ccc2nc(-c3ccc(-c4nccs4)cc3)cn2c1
3.64	Ic1ccc2nc(-c3ccc(-c4cnco4)cc3)cn2c1
3.12	Ic1ccc2nc(-c3ccc(-c4ncon4)cc3)cn2c1
3.2	Ic1ccc2nc(-c3ccc(-c4cc[nH]n4)cc3)cn2c1

assay: not given; conditions: not given; remark: another data set of the same source

logP	SMILES
3.23	CCc1c(Sc2ccccc2)n(COCc2ccccc2)c(=O)[nH]c1=O
2.11	CCOCn1c(Sc2ccccc2)c(CC)c(=O)[nH]c1=O
3.05	CCOCn1c(S)nc(=O)c(CC)c1Sc1ccccc1
2.78	CCOCn1c(Cc2cc(C)cc(C)c2)c(CC)c(=O)[nH]c1=O

assay: not given; conditions: not given; remark: another data set of the same source

logP	SMILES
2.19	O=C(O)c1ccc([N+](=O)[O-])cc1Cl
2.13	O=C(O)c1cc([N+](=O)[O-])ccc1Cl
4.82	O=[N+]([O-])c1cc(-c2ccccc2)ccc1Br
1.99	OCc1ccc(Cl)cc1

SMILES	logP
N#Cc1ccc(O)cc1	1.28

assay: method code SF-AS, from DOI: 10.1021/je700381u; conditions: pH 0.0

logD	SMILES
3.43	O=C(O)c1cc(Br)ccc1F
3.16	O=C(O)c1cc(Br)ccc1Cl
2.67	O=C(O)c1ccc(Br)cc1F
2.63	O=C(O)c1ccc(F)cc1Cl
2.28	O=C(O)c1ccc(Cl)cc1F

assay: method code SF-AS, from DOI: 10.1002/etc.5620180606; conditions: not given

logP	SMILES
4.08	CC(=O)CCC(C#N)Nc1ccc(N=Nc2nc3ccc([N+](=O)[O-])cc3s2)cc1 (centres undefined)
5.19	Nc1c(Oc2ccccc2)c(Oc2ccccc2)c(N)c2c1C(=O)c1ccccc1C2=O
3.62	O=[N+]([O-])c1cc(S(=O)(=O)Nc2ccccc2)ccc1Nc1ccccc1
4.44	COc1cc(/N=N/c2c(Br)cc([N+](=O)[O-])cc2[N+](=O)[O-])c(NC(C)=O)cc1N(CCOC(C)=O)CCOC(C)=O
3.74	Cc1c(O)c(C#N)c(C)c(N=Nc2ccc(Cl)c(Cl)c2)c1O

assay: method code SF, from DOI: 10.1016/0378-5173(85)90102-4; conditions: pH 8.0

SMILES	logD
CC(C)C[C@H](N)C(=O)OCn1ncc2c(=O)[nH]cnc21	0.19
CN(C)CC(=O)OCn1ncc2c(=O)[nH]cnc21	-0.49

Continued, values first:

logD	SMILES
1.27	CCCN(CCC)CC(=O)OCn1ncc2c(=O)[nH]cnc21
-0.15	NC(C(=O)OCn1ncc2c(=O)[nH]cnc21)c1ccccc1 (centres undefined)
0.72	CCN(CC)[C@@H](C)C(=O)OCn1ncc2c(=O)[nH]cnc21 (racemic)

assay: method code SF-AS, from DOI: 10.1016/0048-3575(87)90152-0; conditions: not given

logP	SMILES
3.29	CCOC(C(=O)OCc1ccccc1)C(C)C (centres undefined)
4.41	CC(C)[C@H](Nc1ccccc1)C(=O)OCc1ccccc1
3.33	COC(=O)C(c1ccccc1)C(C)C (centres undefined)
3.18	CC(C)CC(=O)Oc1ccccc1
3.26	CC(C)CC(=O)OCc1ccccc1

assay: method code SF, from DOI: 10.1021/jm9405147, PMID: 8576915; conditions: not given

SMILES	logP
NC1=C(Cl)C(=O)c2ccccc2C1=O	2.08
NC1=CC(=O)c2ccccc2C1=O	1.77
CC1=C(N2CC2)C(=O)C(Br)=C(N2CC2)C1=O	1.36
CC1=C(N2CC2)C(=O)C(Cl)=C(N2CC2)C1=O	1.2
CC1=C(N2CC2)C(=O)C(CCOC(N)=O)=C(N2CC2)C1=O	0.16

assay: method code SF-AS, from DOI: 10.1021/jm00163a043, PMID: 2153206; conditions: pH 7.0

logD	SMILES
0.44	Cc1cn([C@H]2CC[C@@H](CO)O2)c(=O)[nH]c1=S
-0.7	Nc1ccn([C@H]2C=C[C@@H](CO)O2)c(=O)n1
-1.62	Nc1ccn(C2CC(O)C(CO)O2)c(=O)n1 (centres undefined)
-0.07	Cc1cn([C@H]2C[C@H](O)[C@@H](CO)O2)c(=O)[nH]c1=S
-0.21	O=c1[nH]c(=S)ccn1[C@H]1CC[C@@H](CO)O1

assay: method code SF, from DOI: 10.1016/j.bcp.2004.09.021, PMID: 15627482; conditions: pH 7.0

SMILES	logD
CCCCC1(C(=O)OC(C)C)CCC=[N+]1[O-] (centres undefined)	1.07
CCCCC1(C(=O)OCC)CCC=[N+]1[O-] (centres undefined)	0.69
CCCCC1(C(=O)OC(C)(C)C)CCC=[N+]1[O-] (centres undefined)	1.36

More lines, now with the values ahead:

logD	SMILES
1.01	CCCCC1(C(=O)OCC)C(CC)C(C)C=[N+]1[O-] (centres undefined)
1.75	CCCCOC(=O)C1(CCCC)CCC=[N+]1[O-] (centres undefined)

assay: method code SF-AS, from DOI: 10.1139/cjpp-75-12-1362, PMID: 9534947; conditions: not given

SMILES	logP
O=C(N/N=C/c1c(O)ccc2ccccc12)c1ccc(O)cc1	3.95
O=C(N/N=C/c1c(O)ccc2ccccc12)c1ccco1	3.41

Other lines, results leading:

logP	SMILES
4.06	COc1ccc(C(=O)N/N=C\c2c(O)ccc3ccccc23)cc1
2.91	CC(=O)N/N=C/c1c(O)ccc2ccccc12
3.58	O=C(N/N=C/c1c(O)ccc2ccccc12)c1ccc([N+](=O)[O-])cc1

assay: method code SF, from DOI: 10.1034/j.1399-3011.2003.00037.x, PMID: 12492901; conditions: pH 2.0

SMILES	logD
C[C@H](Nc1ccc([N+](=O)[O-])cc1[N+](=O)[O-])C(=O)O	2.09
CCCC[C@H](Nc1ccc([N+](=O)[O-])cc1[N+](=O)[O-])C(=O)O	3.25

Further lines, results first:

logD	SMILES
2.88	CCCC(Nc1ccc([N+](=O)[O-])cc1[N+](=O)[O-])C(=O)O (racemic)
0.4	CC(=O)N[C@@H](Cc1ccccc1)C(=O)O

same assay, conditions: pH 11.0

logD	SMILES
0.16	CC(=O)NC(Cc1c[nH]c2ccccc12)C(N)=O (centres undefined)

assay: method code SF-AS, from DOI: 10.1111/j.2042-7158.1989.tb06384.x, PMID: 2576447; conditions: pH 7.4

logD	SMILES
1.29	CCCCn1c(=O)n(C)c(=O)c2nc[nH]c21
0.84	CCCCn1c(=O)[nH]c(=O)c2nc[nH]c21
0.52	CCn1c(=O)n(C)c(=O)c2nc[nH]c21
0.33	CCCn1c(=O)[nH]c(=O)c2nc[nH]c21
-0.11	CCn1c(=O)[nH]c(=O)c2nc[nH]c21

assay: method code pH-metric titration, from DOI: 10.1002/(sici)1096-9063(199607)47:3<265::aid-ps416>3.0.co;2-f; conditions: not given

SMILES	logP
CC(Oc1ccc(Oc2ccc(C(F)(F)F)cn2)cc1)C(=O)O (centres undefined)	3.18
CC(C(=O)O)N(C(=O)c1ccccc1)c1ccc(F)c(Cl)c1 (racemic)	3.09
CN1CCC[C@H]1c1cccnc1	0.93

same assay, conditions: pH 2.7

SMILES	logD
CC(C)C1(C)N=C(c2ncccc2C(=O)O)NC1=O (centres undefined)	0.22

same assay, conditions: pH 9.0

SMILES	logD
CC(Cc1ccc(C(C)(C)C)cc1)CN1C[C@@H](C)O[C@@H](C)C1 (some centres undefined)	4.93

assay: method code SF-AS, from Frater-Schröder, M.; Alder, S.; Zbinden, G. (1976). Neurotoxic effects of pyridoxine and analogs in rats. Proc. Eur. Soc. Toxicol, 17, 277-284.; conditions: pH 7.4

SMILES	logD
Cc1ncc(CO)c2c1OC1=CCCCC1=C2	1.98
Cc1ncc(CO)c(Cc2ccc(N(C)C)cc2)c1O	0.81
CCCCN(CCCC)Cc1c(CO)cnc(C)c1O	1.69
Cc1ncc(CO)c(COCCC(C)C)c1O	0.83
CCCCOCc1c(CO)cnc(C)c1O	1.34
